In patent US5576188A, “Immunological detection of metolachlor” (Ciba-Geigy Corporation, priority 1990, dated 1996):

Experiments:
[1] = molecular target: MAb 4082-25-4; assay: Indirect competitive ELISA (assay A), inhibition of MAb 4082-25-4 binding / cross-reactivity; parameters: species or system BALB/c mouse; conditions: for I50 (inhibitor concentration for 50% inhibition in the competitive ELISA): MAb 4082-25-4; for Cross-reactivity (metolachlor concentration for 50% inhibition / concentration of metolachlor analogue for 50% inhibition × 100): MAb 4082-25-4, relative to metolachlor
From the text: The percentage cross-reactivity is to be defined within the scope of this invention by the following relation:
(Metolachlor concentration for 50% inhibition/concentration of the metolachlor analogues for 50% inhibition)×100.
A 50% inhibition can be determined, for example, with the aid of a competitive ELISA assay (compare Example 8). This then corresponds, for example, to that antigen concentration which leads to 50% inhibition of antibody binding to the carrier-bound antigen.
8.1: Indirect ELISA (assay A)
Metolachlor is detected by means of a two-stage competitive ELISA test using an enzyme-labelled second antibody.
BSA-conjugated hapten in a 50 mM sodium carbonate buffer (pH 9.6) (200 ng of BSA-conjugated hapten/100 μl of sodium carbonate buffer) is initially adsorbed onto microtitre plates (for example Dynatech, type M 129A) and incubated at a temperature of 4° C. overnight. It has emerged that the sensitivity of the assay can be increased almost 5-fold by reducing the conjugate[BSA/hapten] concentration from 200 ng/100 μl of sodium carbonate buffer to 50 ng/100 μl of sodium carbonate buffer because the coating is improved.
The plates are then washed 5× with PBS buffer which is supplemented with 0.1% (v/v) polysorbate 20 (Tween 20) (PBS-Tween).
The remaining free binding sites on the solid support material are then blocked by adding BSA in the form of a 1% solution. After incubation at 22° C. for two hours the plates are again washed with PBS-Tween (0.1%).
50 μl of the previously purified monoclonal antibodies (0.2 μg/ml) or else of the supernatant of the cell clones (in a dilution of 1:15) are incubated a) with 950 μl of a standard solution which contains an increasing content of metolachlor or metolachlor analogue, b) with metolachlor-containing water samples or c) metolachlor-containing soil extracts. (PBS-Tween is used for all dilutions).
After an incubation time of 1 hour at room temperature (22° C.), 200 μl of the antigen/antibody mixture are added to each well of the microtitre plate, and the entire mixture is incubated for a further hour. The wells are then washed 5× with PBS-Tween (0.1%) and charged with 100 μl/well of goat anti-mouse IgG antibody which is conjugated to alkaline phosphatase (dilution 1:1500) and incubated for a period of 1.5 hours.
After renewed washing, 150 μl/well of the substrate p-nitrophenyl phosphate which is dissolved in 1 mg/ml diethanolamine buffer (1 mM, pH 9.8, supplemented with 0.5 mM MgCl2 ×6H2 O) are added to the wells.
After an incubation time of 2 hours at a temperature of 22° C. it is possible to observe a colour change which is proportional to the amount of antibody which has reacted with the antigen bound to the solid phase. The intensity of the colour reaction which has occurred is determined at a wavelength of 405 nm. The dilutions of the individual samples are chosen so that absorptions in a range between 0.3 and 0.5 are obtained without addition of an inhibitor (Bo). Values of R≤0.005 are found for the controls (without antibody and with undetectable amounts of antigen). All the samples are determined in triplicate.
(§1) For the determination of the amount of metolachlor contained in a sample, initially a calibration plot is constructed (FIG. 1), where B/Bo×100is plotted against the concentration of inhibitor. (Bo represents the absorbance measured without addition of a metolachlor inhibitor to the antibody, and B means the absorbance measured with various concentrations of metolachlor inhibitor). […] The I50 value is calculated using an ENZFITTER (Leatherbarrow, Elsevier-Biosoft) plot calculation program specifically adapted to the present circumstances and based on a logistic plot embracing 4 parameters (Raab GM, 1983). The quantitative determination of metolachlor in samples of soil or water within the scope of the ELISA is also carried out using the ENZFITTER program, with the fitting of the plot being based on standards included on each microtitre plate. […]

[2] = test system: MAb 4082-25-4; assay: Direct competitive ELISA (assay B); type: binding, BALB/c mouse
Experimental: 8.2: Direct ELISA (assay B)
Microtitre plates [Dynatech M 129A] are coated with monoclonal antibodies [for example MAb 4082-25-4; 75 ng/100 μl of 50 mM sodium carbonate buffer, pH 9.6] and incubated at a temperature of 4° C. overnight. The plates are then washed 5 times with 0.1% (v/v) PBS-Tween and subsequently incubated with PBS supplemented with 1% (w/v) BSA for 2 hours in order to block the binding sites which are still free. After renewed washing, 150 μl of a standard solution are added to each of the wells of the microtitre plates which contain increasing amounts of metolachlor in 0.1% (v/v) PBS-Tween. This is followed by incubation at a temperature of 22° C. for 1 hour. […] After incubation at 22° C. in the dark for 2 hours, the absorption of 405 nm is determined.
as §1, with “1983).” for “1983). The quantitative determination of metolachlor in samples of soil or water within the scope of the ELISA is also carried out using the ENZFITTER program, with the fitting of the plot being based on standards included on each microtitre plate.”

| I50 (inhibitor concentration for 50% inhibition in the competitive ELISA) [1] [ng/mL] | Cross-reactivity (metolachlor concentration for 50% inhibition / concentration of metolachlor analogue for 50% inhibition × 100) [1] [%] | SMILES | I50 [2] [ng/mL] |
| --- | --- | --- | --- |
| > 1000 | < 0.1 | COC(=O)C(C)Nc1c(C)cccc1C (stereo not drawn) [Compound I] | – |
| > 1000 | < 0.1 | CCc1cccc(C)c1NC(=O)CO [D] | – |
| > 1000 | < 0.1 | CCc1cccc(C)c1NC(C)CO (stereo not drawn) [E] | – |
| > 1000 | < 0.1 | CCc1cccc(C)c1N(C(=O)CO)C(C)CO (stereo not drawn) [F] | – |
| > 1000 | < 0.1 | COCC(=O)N(c1c(C)cccc1C)C(C)C(=O)O (stereo not drawn) [G] | – |
| > 1000 | < 0.1 | Cc1cccc(C)c1N(C(=O)CO)C(C)C(=O)O (stereo not drawn) [H] | – |
| > 1000 | < 0.1 | COCC(=O)Nc1c(C)cccc1C [J] | – |
| > 1000 | < 0.1 | Cc1cccc(C)c1NC(C)C(=O)O (stereo not drawn) [K] | – |
| > 1000 | < 0.1 | COCC(=O)N(c1c(C)cccc1CO)C(C)C(=O)OC (stereo not drawn) [M] | – |

The remaining lines, values behind:

| SMILES | I50 (inhibitor concentration for 50% inhibition in the competitive ELISA) [1] [ng/mL] | Cross-reactivity (metolachlor concentration for 50% inhibition / concentration of metolachlor analogue for 50% inhibition × 100) [1] [%] | I50 [2] [ng/mL] |
| --- | --- | --- | --- |
| CCc1cccc(C)c1N(C(=O)CO)C(C)COC (stereo not drawn) [A] | 43 | 1.4 | – |
| CCc1cccc(CC)c1N(COC)C(=O)CCl [Alachlor] | > 1000 | < 0.1 | – |
| CCc1cccc(C)c1NC(C)COC (stereo not drawn) [B] | > 1000 | < 0.1 | – |
| CCc1cccc(C)c1NC(=O)CCl [C] | > 1000 | < 0.1 | – |
| COCC(=O)N(c1c(C)cccc1C)C(C)C(=O)OC (stereo not drawn) [L] | > 1000 | – | – |
| CCc1cccc(C)c1N(C(=O)CCl)C(C)COC (stereo not drawn) [Metolachlor, 2-chloro-6'-ethyl-N-(2-methoxy-1-methyl-ethyl)acet-O-toluidide] | 0.6 | 100 | 1.0 |
| COC(=O)C(C)N(C(=O)c1ccco1)c1c(C)cccc1C (stereo not drawn) [N] | > 1000 | – | – |
| COC(=O)C(C)N(C(=O)c1ccco1)c1c(C)cccc1C (stereo not drawn) [furalaxyl] | – | < 0.1 | – |
| COCC(=O)N(c1c(C)cccc1C)C(C)C(=O)OC (stereo not drawn) [matalaxyl] | – | < 0.1 | – |
